Assay results from ChEMBL document CHEMBL4422686, “Optimization of an azetidine series as inhibitors of colony stimulating factor-1 receptor (CSF-1R) Type II to lead to the clinical candidate JTE-952” (Bioorg Med Chem Lett, 2019).

Assays:
Details in all cases: in vivo
[1] = Mean residence time in Sprague-Dawley rat at 1 mg/kg, iv by LC-MS/MS analysis; format: ADME, organism-based
[2] = AUC in Sprague-Dawley rat at 3 mg/kg, po by LC-MS/MS analysis; format: ADME, organism-based
[3] = Volume of distribution in cynomolgus monkey at 1 mg/kg, iv by LC-MS/MS analysis; format: ADME, organism-based, Macaca fascicularis
[4] = Mean residence time in cynomolgus monkey at 1 mg/kg, iv by LC-MS/MS analysis; format: ADME, organism-based, Macaca fascicularis
[5] = Cmax in Sprague-Dawley rat at 3 mg/kg, po by LC-MS/MS analysis; format: ADME, organism-based; set-up: dose 3 mg/kg, route oral
[6] = Oral bioavailability in Sprague-Dawley rat at 3 mg/kg by LC-MS/MS analysis; format: ADME, organism-based
[7] = Volume of distribution in Sprague-Dawley rat at 1 mg/kg, iv by LC-MS/MS analysis; format: ADME, organism-based

| MRT [1] | AUC [2] | Vd [3] | MRT [4] | Cmax [5] | bioavailability [6] | Vd [7] | Structure (SMILES) |
| --- | --- | --- | --- | --- | --- | --- | --- |
| 0.91 h | 1.63 µM·h | 0.56 L/kg | 1.2 h | 270 nM | 116% | 3.46 L/kg | COc1cc(C2CN(C(=O)c3cc(COCC(CO)(CO)CO)ccn3)C2)ccc1OCc1ccc(C2CC2)cc1 |
| 1.46 h | 2.22 µM·h | 5 L/kg | 7.5 h | 490 nM | 85.1% | 3.27 L/kg | COc1cc(C2CN(C(=O)c3cc(COC[C@@H](O)CO)ccn3)C2)ccc1OCc1ccc(C2CC2)cc1 |
| 1.37 h | 4.15 µM·h | 0.76 L/kg | 0.28 h | 740 nM | 75.8% | 1.51 L/kg | COc1cc(C2CN(C(=O)c3cc(OC[C@H](O)CO)ccn3)C2)ccc1OCc1ccc(C2CC2)cc1 |
